Test results reported in patent US20100167396A1, “Application of Anti-Apoptotic Gene Expression in Mammalian Cells for Perfusion Culture” (BAYER HEALTHCARE LLC, priority 2006, published 2010).

Columns and labels:
[1] = tested on: E1B-19K #6 and Aven-E1B-19K #22 BHK-FVIII cell lines; assay: Thapsigargin-induced caspase-3 activation, engineered cell lines; type: cell-based, hamster; conditions: 24 hours after 2 μM thapsigargin treatment, anti-apoptosis engineered cell lines
Protocol: (§1) Cells were seeded at a density of 5×10^6 cells/mL in shake flasks and cultured in an incubator maintained at 37° C. and 5% CO2. The culture was examined every 24 hours for viability, caspase-3 activation, Annexin-V binding assay, and nutrient measurements. Cell count was performed by trypan blue exclusion assay using a Cedex cell counting device (Innovatis, Bielefeld, Germany). Caspase-3 activation was detected using a Guava PCA system (Guava Technologies, Hayward, Calif.). Cells were washed with cold PBS, fixed with Cytofix/Cytoperm solution (BD Pharmingen, San Diego, Calif.), and then stained with PE-conjugated monoclonal active caspase-3 antibody (BD Pharmingen) before analyzing with the Guava system. For the Annexin-V binding assay, cells were collected and incubated using a Guava Nexin kit and analyzed on the Guava PCA system according to manufacturer's instructions (Guava Technologies). Levels of glutamine, glutamate, glucose, and lactate were measured by the YSI analyzer (YSI Life Sciences, Yellow Springs, Ohio).
(§2) The engineered cell lines Aven-E1B-19K #22 and E1B-19K #6, in addition to the blank vector and the parental cell lines were treated with thapsigargin in shake flask culture. […] To examine apoptosis induction, caspase-3 activation was evaluated 24 hours after thapsigargin treatment.

[2] = tested on: blank vector and parental BHK-FVIII cell lines; assay: Thapsigargin-induced caspase-3 activation, control cell lines; type: cell-based, hamster; conditions: 24 hours after 2 μM thapsigargin treatment
Protocol: as §1, §2

C/C=C(/C)C(=O)O[C@H]1C(C)=C2[C@H]([C@@H]1OC(=O)CCCCCCC)[C@@](C)(OC(C)=O)C[C@H](OC(=O)CCC)[C@@]1(O)[C@H]2OC(=O)[C@@]1(C)O [thapsigargin]
percentage of caspase-3 activated cells [1]: less than 5% | percentage of caspase-3 activated cells [2]: Approximately 20%
